According to ChEMBL document CHEMBL5346964, “Discovery of LNP1892: A Precision Calcimimetic for the Treatment of Secondary Hyperparathyroidism” (J Med Chem, 2023):

How the values were obtained:
[1] = AUC(0 to t) in human at 25 mg/kg, po administered as single dose; assay type: ADME, organism-based; parameters: dose 25 mg/kg, route po; conditions: in vivo
[2] = Metabolic stability in dog liver cytosol measured upto 60 mins by LC-MS/MS method; assay type: ADME, subcellular, Canis lupus familiaris; conditions: read-out: Stability
[3] = AUClast in Sprague-Dawley rat at 10 mg/kg, po administered as suspension measured upto 24 hrs by LC-MS/MS analysis; assay type: ADME, organism-based; parameters: dose 10 mg/kg, time < 24 hrs, route po; conditions: in vivo
[4] = Chemical stability of the compound in SIF measured after 0.5 to 4 hrs; assay type: physicochemical; conditions: simulated gi fluid; time 0.5-4 hrs
[5] = Apparent permeability across apical to basolateral side in human Caco-2 cells at 5 uM measured after 30 to 120 mins by LC-MS/MS analysis; assay type: ADME, cell-based; conditions: time 30-120 min
[6] = Tmax in BALB/c mouse at 10 mg/kg, po measured upto 24 hrs by LC/MS-MS analysis; assay type: ADME, organism-based; conditions: in vivo
[7] = Cmax in Sprague-Dawley rat at 30 mg/kg; assay type: ADME, organism-based; parameters: dose 30 mg/kg; conditions: in vivo
[8] = Cmax in Sprague-Dawley rat at 10 mg/kg, po administered as solution measured upto 24 hrs by LC-MS/MS analysis; assay type: ADME, organism-based; parameters: dose 10 mg/kg, time < 24 hrs, route po; conditions: in vivo
[9] = Kinetic solubility of compound upto 500 uM at pH 2 measured after 16 hrs under shaking condition by UV-visible method; assay type: physicochemical; conditions: buffer, read-out: Kinetic_solubility
[10] = Oral bioavailability in Sprague-Dawley rat at 10 mg/kg measured upto 24 hrs by LC/MS-MS analysis; assay type: ADME, organism-based; conditions: in vivo
[11] = Effect on parathyroid hormone in overnight fasted Sprague-Dawley rat assessed as reduction in plasma PTH level at 3 mg/kg, po measured after 4 hrs of post treatment by sandwich ELISA analysis; assay type: functional; parameters: scale not given: the % may be the effect or the level left
[12] = Cmax in Sprague-Dawley rat at 10 mg/kg, po administered as suspension measured upto 24 hrs by LC-MS/MS analysis; assay type: ADME, organism-based; parameters: dose 10 mg/kg, time < 24 hrs, route po; conditions: in vivo
[13] = Kinetic solubility of compound in 0.1N HCL upto 500 uM measured after 16 hrs under shaking condition by UV-visible method; assay type: physicochemical; conditions: read-out: Kinetic_solubility
[14] = Tmax in Sprague-Dawley rat at 1 mg/kg, iv measured upto 24 hrs by LC-MS/MS analysis; assay type: ADME, organism-based; conditions: in vivo
[15] = Stability in mouse plasma measured up to 4 hrs by LC-MS/MS method; assay type: ADME, cell-free; conditions: read-out: Stability
[16] = Metabolic stability in dog liver S9 fraction measured upto 60 mins by LC-MS/MS method; assay type: ADME, subcellular, Canis lupus familiaris; conditions: read-out: Stability
[17] = Chemical stability of the compound in 0.1N NaOH measured after 0.5 to 4 hrs; assay type: physicochemical; conditions: time 0.5-4 hrs
[18] = Protein binding in rat plasma incubated for 16 hrs under shaking condition by rapid equilibrium dialysis based LC-MS/MS method; assay type: ADME, cell-free; conditions: read-out: PPB
[19] = Kinetic solubility of compound in SGF upto 500 uM measured after 16 hrs under shaking condition by UV-visible method; assay type: physicochemical; conditions: read-out: Kinetic_solubility
[20] = Tmax in Sprague-Dawley rat at 10 mg/kg; assay type: ADME, organism-based; conditions: in vivo
CYP2C19 = CYP2C19 (Homo sapiens, UniProt P33261); test: Inhibition of CYP2C19 in human liver microsomes at 10 uM preincubated for 5 mins followed by NADPH addition by LC-MS/MS analysis relative to control; assay type: ADME, Microsome
CYP2C19, sequence (P33261 whole entry): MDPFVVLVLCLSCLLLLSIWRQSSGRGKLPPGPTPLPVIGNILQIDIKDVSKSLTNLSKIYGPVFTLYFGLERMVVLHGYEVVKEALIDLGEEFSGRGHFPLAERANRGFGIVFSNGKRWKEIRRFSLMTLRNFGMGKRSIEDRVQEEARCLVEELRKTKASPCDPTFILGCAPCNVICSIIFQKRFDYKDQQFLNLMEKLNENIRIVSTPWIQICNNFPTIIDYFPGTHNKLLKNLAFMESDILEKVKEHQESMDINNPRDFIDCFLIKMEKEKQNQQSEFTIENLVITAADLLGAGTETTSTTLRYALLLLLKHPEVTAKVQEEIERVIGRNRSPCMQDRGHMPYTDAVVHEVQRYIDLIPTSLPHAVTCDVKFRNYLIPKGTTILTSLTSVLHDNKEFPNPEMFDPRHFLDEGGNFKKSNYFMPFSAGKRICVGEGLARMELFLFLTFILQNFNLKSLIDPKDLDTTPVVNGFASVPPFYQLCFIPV

[21] = Cmax in human at 25 mg/kg, po administered as multiple dose on day 8; assay type: ADME, organism-based; parameters: dose 25 mg/kg, route po; conditions: in vivo
[22] = Tmax in Sprague-Dawley rat at 300 mg/kg; assay type: ADME, organism-based; conditions: in vivo
Rattus norvegicus [23] = test: Acute effect on parathyroid hormone in overnight fasted adenine diet-induced chronic kidney disease Wistar rat model assessed as reduction in plasma PTH level at 10 mg/kg, po measured after 2 hrs of post treatment by sandwich ELISA analysis; assay type: functional; parameters: scale not given: the % may be the effect or the level left
[24] = Cmax in rat at 25 mg/kg per day, po via gavage administered for 13 weeks; assay type: ADME, organism-based; parameters: time 13 weeks, dose 25 mg/kg, route po; conditions: in vivo
[25] = AUC in BALB/c mouse at 10 mg/kg, po measured upto 24 hrs by LC/MS-MS analysis; assay type: ADME, organism-based; parameters: time < 24 hrs, dose 10 mg/kg, route po; conditions: in vivo
Rattus norvegicus [26] = test: Acute effect on parathyroid hormone in overnight fasted adenine diet-induced chronic kidney disease Wistar rat model assessed as reduction in plasma PTH level at 3 mg/kg, po measured after 4 hrs of post treatment by sandwich ELISA analysis; assay type: functional; parameters: scale not given: the % may be the effect or the level left
[27] = Tmax in Sprague-Dawley rat at 10 mg/kg, po administered as suspension measured upto 24 hrs by LC-MS/MS analysis; assay type: ADME, organism-based; conditions: in vivo
[28] = Ratio of drug concentration in blood to thyroid in Sprague-Dawley rat at 10 mg/kg, po measured upto 24 hrs by LC-MS/MS analysis; assay type: ADME, organism-based; conditions: in vivo
[29] = AUC in cynomolgus monkey at 5 mg/kg, po measured upto 24 hrs by LC/MS-MS analysis; assay type: ADME, organism-based, Macaca fascicularis; parameters: dose 5 mg/kg, time < 24 hrs, route po; conditions: in vivo
Rattus norvegicus [30] = test: Effect on parathyroid hormone in po dosed overnight fasted Sprague-Dawley rat assessed as reduction in plasma PTH level measured after 0.5 to 6 hrs of post treatment by sandwich ELISA analysis; assay type: functional, organism-based; conditions: dose 3-30 mg/kg, time 0.5-6 hrs
[31] = Tmax in Beagle dog at 5 mg/kg, po measured upto 24 hrs by LC/MS-MS analysis; assay type: ADME, organism-based, Canis lupus familiaris; conditions: in vivo
[32] = Effect on parathyroid hormone in overnight fasted adenine diet-induced chronic kidney disease Wistar rat model plasma assessed as reduction in PTH level at 1 mg/kg, po measured after 1 hrs of post treatment by sandwich ELISA analysis; assay type: functional; parameters: scale not given: the % may be the effect or the level left

**Q.** With `Cc1ccc([C@@H]2C[C@H](CN[C@H](C)c3cccc4ccccc34)Oc3ccccc32)cc1C(=O)O.Cl` as the compound, how does the AUC(0-t) [1] read?
**A.** 2930 ng·h/mL

**Q.** And the remaining at 1 h [2]?
**A.** > 80%

**Q.** And the AUC(0-t) at 24 h [3]?
**A.** 23 µM·h

**Q.** And the Stability [4]?
**A.** Stable

**Q.** What about the Papp A→B at 5 µM [5] of the same compound?
**A.** 20 ×10⁻⁶ cm/s

**Q.** And the Tmax [6]?
**A.** 15 min

**Q.** What about the Cmax [7] of the same compound?
**A.** 24 µM

**Q.** And the Cmax [8]?
**A.** 14 µM

**Q.** And the solubility kinetic at 16 h, 500 µM [9]?
**A.** > 300 µM

**Q.** And the bioavailability [10]?
**A.** 99%

**Q.** And the Activity [11]?
**A.** 74%

**Q.** What about the Cmax [12] of the same compound?
**A.** 4 µM

**Q.** What about the solubility kinetic at 16 h, 500 µM [13] of the same compound?
**A.** > 200 µM

**Q.** What about the Tmax [14] of the same compound?
**A.** 4.8 min

**Q.** And the remaining at 4 h [15]?
**A.** > 80%

**Q.** And the remaining at 1 h [16]?
**A.** > 80%

**Q.** What about the Stability [17] of the same compound?
**A.** Stable

**Q.** What about the fraction unbound at 16 h [18] of the same compound?
**A.** < 0.01

**Q.** And the solubility kinetic at 16 h, 500 µM [19]?
**A.** > 200 µM

**Q.** What about the Tmax [20] of the same compound?
**A.** 60 min

**Q.** And the inhibition at 10 µM (CYP2C19)?
**A.** 7%

**Q.** What about the Cmax [21] of the same compound?
**A.** 463 ng/mL

**Q.** What about the Tmax [22] of the same compound?
**A.** 60 min

**Q.** And the Activity (Rattus norvegicus [23])?
**A.** 89%

**Q.** What about the Cmax [24] of the same compound?
**A.** 9660 ng/mL

**Q.** What about the AUC at 24 h [25] of the same compound?
**A.** 171 µM·h

**Q.** And the Activity (Rattus norvegicus [26])?
**A.** 89%

**Q.** What about the Tmax [27] of the same compound?
**A.** 60 min

**Q.** And the Ratio [28]?
**A.** 0.3

**Q.** What about the AUC at 24 h [29] of the same compound?
**A.** 1.3 µM·h

**Q.** What about the Activity (Rattus norvegicus [30]) of the same compound?
**A.** Dose-Dependent Effect

**Q.** What about the Tmax [31] of the same compound?
**A.** 42 min

**Q.** And the Activity [32]?
**A.** 95%
